Values joined by “and” are separate entries in the source; they are usually repeats but may differ in a detail not shown here. Equal entries are not always repeated.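 Cultured in 96-well plates, cells were exposed to test compound for 48 hours across five concentrations. Here, GI50 denotes the concentration required for 50% inhibition of growth. The concentration for full growth arrest is given as TGI.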

Holding throughout (assay): NCI anticancer screen, dose series, 48 h
Assay [1] concerns NCI-H226 lung.
For assay [2], the system named is SF-295 CNS.
The subject of assay [3] is SF-268 CNS.
Assay [4] has as its system HOP-62 NSCLC.
Assay [5] deals with KM12 colon.
In assay [6] the test system is HT29 colon.
Assay [7] concerns DMS 114 small cell lung.
Assay [8] deals with HL-60(TB) leukemia.
The subject of assay [9] is KM20L2 colon.
Assay [10] has as its system MDA-MB-231 breast.

As to `COc1cccc(/C=N/[N-]C(=O)c2ccncc2)c1[O-].COc1cccc(/C=N/[N-]C(=O)c2ccncc2)c1[O-].[O]=[U](=[O])([OH2+])[OH2+]`, the GI50 in assay [1] is 5.01 µM; in assay [2] it was 5.86 µM; in assay [3], 4.83 µM; in assay [4], 3.71 µM; in [5] it was 36.3 µM; in assay [6], 30.7 µM. In addition, the GI50 is 3.3 µM in [7], 2.43 µM in assay [8] and 3.14 µM in [9]. Besides, the TGI in [1] is 28 µM; in [2], over 54.7 µM; in assay [3] it was 49.4 µM; in [4] it was 24.9 µM; in assay [5] it was over 100 µM; in assay [6], over 100 µM. Besides, the TGI in assay [7] was 12.5 µM; in assay [8] it was over 100 µM; in assay [9] it was over 100 µM.

Regarding `Nc1ccccc1C(=O)/C=C/c1c(O)ccc2ccccc12`, the TGI in [1], in assay [2], in assay [3], in assay [4], in [5] and in assay [6] was over 100 µM in each case. Also, the TGI in assay [7], in assay [8] and in assay [9] was over 100 µM in each case.

`Cc1[nH]c2ccccc2c1C1Cc2ccccc2N1C(=O)C#Cc1ccc([N+](=O)[O-])cc1` (centres undefined): the TGI in assay [1], in [2], in assay [3], in [4], in [5] and in [6] was over 100 µM in each case. In addition, the TGI in [7], in assay [8] and in [9] was over 100 µM in each case.

Regarding `N#CC(=Nc1ccccc1N(C(=O)c1ccccc1)C(=O)c1ccccc1)c1ccccc1`, the TGI in [1] is over 100 µM; in assay [2], over 100 µM; in assay [3] it was over 100 µM; in [4], over 100 µM; in assay [5] it was over 70.9 µM; in assay [6], over 100 µM. For the same compound, the TGI in [7] was over 48.8 µM; in [8], over 41.1 µM; in [9] it was over 100 µM.

With `COc1c(C)n(CCO)ccc1=O`, the TGI in [1], in [2], in assay [3], in [4], in assay [5] and in [6] was over 100 µM each time. Moreover, the TGI in [7], in assay [8] and in [9] was over 100 µM each time.

Take `CN(C)C(=S)SSC(=S)N(C)C`: the GI50 in [1] is 21.4 µM and > 78.4 µM and 38.3 µM; in [3], 15 µM and 42.7 µM and 16.1 µM; in assay [4], 18 µM; in assay [6] it was 0.112 µM and 0.29 µM. In addition, the TGI is 84.6 µM and > 100 µM and > 65.8 µM in [1]; 81.9 µM and > 100 µM and 57.1 µM in assay [2]; 29 µM and > 100 µM and 32.8 µM in assay [3]; 34.8 µM and > 100 µM in [4]; 24.7 µM and 11.1 µM and 45.4 µM in assay [5]; > 54.9 µM and 30.7 µM in [6]. The TGI in assay [7] is 17.4 µM; in assay [8], 70.6 µM and 9.41 µM and 10.8 µM; in assay [10] it was 42.9 µM and 32 µM and 53.5 µM; in [9] it was over 100 µM.

Take `O=C(CC(=O)C1CCOC1=O)C(=O)Nc1cccc(Cl)c1` (centres undefined): the TGI in assay [1], in assay [2], in assay [3], in assay [4], in [5] and in assay [6] was over 100 µM throughout. In addition, the TGI in assay [7], in [8] and in assay [9] was over 100 µM each time.

Regarding `CCOC(=O)NC(=O)c1cn(C(CC)COC(=O)NCCCCCCNC(=O)OCC(CC)n2cc(C(=O)NC(=O)OCC)c(=O)[nH]c2=O)c(=O)[nH]c1=O` (centres undefined), the TGI in [1], in [2], in [3], in assay [4], in assay [5] and in assay [6] was over 100 µM each time. Besides, the TGI in assay [7], in [8] and in assay [9] was over 100 µM in each case.

Consider `CCNC(=O)/C(=C/c1ccc(OC)cc1)c1cc(OC)c(OC)c(OC)c1`, for which the TGI in assay [1] was 88.7 µM; in assay [2], 19.6 µM; in [3], over 100 µM; in [4] it was over 100 µM; in assay [5] it was over 100 µM; in assay [6], 65.4 µM. For the same compound, the TGI in assay [7] was over 57 µM; in assay [8], 21.9 µM; in assay [10] it was over 86.1 µM; in assay [9] it was 13.5 µM.

For the compound `CC(C)CCC[C@@H](C)C1CCC2[C@@H]3CC=C4C[C@@H](C(=O)NCCN(C)C)CC[C@]4(C)C3CC[C@@]21C` (some centres undefined), the TGI in [1] was 51.4 µM; in assay [2], over 100 µM; in assay [3], over 100 µM; in assay [4], 61.2 µM; in assay [5], 28.2 µM; in [6] it was over 100 µM. In addition, the TGI in assay [7] was 38.1 µM; in assay [8], over 100 µM; in [9], over 100 µM.

Consider `COC(=O)/C([Se]c1c(C)cc(C)cc1C)=C(/[Se]c1c(C)cc(C)cc1C)C(=O)OC`, for which the TGI in assay [1], in assay [2], in assay [3], in [4], in [5] and in [6] was over 100 µM in each case. Also, the TGI in assay [7], in assay [8] and in [9] was over 100 µM throughout.
